Data as given in patent US20200237759A1, “DOSAGE REGIME AND METHOD FOR TREATING PULMONARY ARTERIAL HYPERTENSION” (Altavant Sciences GmbH, priority 2019, published 2020).
Values joined by “and” are separate entries in the source; they are usually repeats but may differ in a detail not shown here. Identical values can stand only once.

Assay: Part 2 MAD plasma pharmacokinetics, BID oral KAR5585 for 14 days
[1] = 100 mg (Cohort 2) to 400 mg (Cohort 4) BID fed, 4-fold increase in dose
[2] = 100 mg/dose BID Fasted, Cohort 1, Day 1 AM
[3] = 100 mg/dose BID Fasted, Cohort 1, Day 14
[4] = 100 mg/dose BID Fed, Cohort 2, Day 1 AM
[5] = 100 mg/dose BID Fed, Cohort 2, Day 1 PM
[6] = 100 mg/dose BID Fed, Cohort 2, Day 7 AM
[7] = 100 mg/dose BID Fed, Cohort 2, Day 7 PM
[8] = 100 mg/dose BID Fed, Cohort 2, Day 14
[9] = 200 mg/dose BID Fed, Cohort 3, Day 1 AM
[10] = 400 mg/dose BID Fed, Cohort 4, Day 1 AM
[11] = 400 mg/dose BID Fed, Cohort 4, Day 1 PM
[12] = 400 mg/dose BID Fed, Cohort 4, Day 7 AM
[13] = 400 mg/dose BID Fed, Cohort 4, Day 7 PM
[14] = 400 mg/dose BID Fed, Cohort 4, Day 14 (last block, /D fits 400 mg)
[15] = Day 7 AM, blank dose cell under 400/Fed Cohort 4, /D fits 200 mg Fed Cohort 3
[16] = Day 7 AM, blank dose cell under 400/Fed Cohort 4, likely 200 mg Fed Cohort 3
[17] = Day 7 PM (3rd 7/PM block), blank dose cell under 400/Fed Cohort 4, /D fits 200 mg Fed Cohort 3
[18] = Day 7 PM, blank dose cell under 400/Fed Cohort 4, /D fits 200 mg Fed Cohort 3
[19] = Day 14 (first Day 14 block), blank dose cell under 400/Fed Cohort 4, /D fits 200 mg Fed Cohort 3

Protocol: Food effect was to be evaluated in Part 1, Period 2.
Part 2 (MAD): BID doses (separated by approximately 12 hours on Days 1 to 13) and a single AM dose on Day 14. One or more of the MAD Cohort could have been dosed once daily (QD).
Pharmacokinetic data were to be summarized descriptively.

With `CCOC(=O)[C@@H]1CC2(CCN(c3cc(O[C@H](c4ccc(Cl)cc4-c4ccccc4)C(F)(F)F)nc(N)n3)CC2)CN1` [KAR5585, (S)-ethyl 8-(2-amino-6-((R)-1-(5-chloro-[1,1′-biphenyl]-2-yl)-2,2,2-trifluoroethoxy)pyrimidin-4-yl)-2,8-diazaspiro[4.5]decane-3-carboxylate] the “increase in mean AUC0-12, Day 1” value [1] was 5.1 fold, the “increase in mean AUC0-12, Day 14” value [1] was 3.1 fold and the “increase in mean AUC0-24, Day 1” value [1] was 3.6 fold. For the same molecule, the “increase in mean AUC0-24, Day 14” value [1] was 3.6 fold and 3.63 fold, the “increase in mean Cmax, Day 1” value [1] was 4.4 fold and the “increase in mean Cmax, Day 14” value [1] was about 3.0 fold. The “time to peak plasma concentrations (range), Day 1” value (100 mg KAR5585 BID, Part 2 Cohort 1 (fasted state)) was 0.75 to 2.0 h, the “VZ/F, Day 14” value (100 mg KAR5585 BID, fed) was 3520 L and the “mean VZ/F, Day 1” value (100 mg KAR5585 BID, fed) was 4100 L. For the same molecule, the “AUC0-12 (Mean)” value [2] was 62.8 ng·h/mL, the “Cmax (Mean)” value [2] was 16.7 ng/mL and the “Vz/F (Mean)” value [2] was 4900 L. The “tmax (Median)” value [2] was 1.5 h, the “AUC0-24 (Mean)” value [3] was 99.8 ng·h/mL and the “C24 (Geo. Mean)” value [3] was “BLQ”. For the same molecule, the “C24 (Mean)” value [3] was “BLQ”, the “Cmax (Mean)” value [3] was 21.3 ng/mL and the “Vz/F (Geo. Mean)” value [3] was 4230 L. For the same molecule, the “Vz/F (Mean)” value [3] was 4420 L, the “t1/2 (Mean)” value [3] was 2.49 h and the “tmax (Median)” value [3] was 1.0 h. For the same molecule, the “AUC0-12 (Geo. Mean)” value [4] was 51.2 ng·h/mL, the “AUC0-12 (Mean)” value [4] was 55.5 ng·h/mL and the “AUC0-∞ (Geo. Mean)” value [4] was 51.7 ng·h/mL. The “AUC0-∞ (Mean)” value [4] was 55.9 ng·h/mL, the “Cmax (Geo. Mean)” value [4] was 17.7 ng/mL and the “Cmax (Mean)” value [4] was 18.4 ng/mL. For the same molecule, the “Vz/F (Geo. Mean)” value [4] was 3830 L, the “Vz/F (Mean)” value [4] was 4100 L and the “t1/2 (Geo. Mean)” value [4] was 1.37 h. The “tmax (Median)” value [4] was 0.75 h, the “AUC0-∞ (Geo. Mean)” value [5] was 152 ng·h/mL and the “Cmax (Geo. Mean)” value [5] was 39.8 ng/mL. For the same molecule, the “Cmax (Mean)” value [5] was 44.1 ng/mL, the “Vz/F (Geo. Mean)” value [5] was 1730 L and the “Vz/F (Mean)” value [5] was 1820 L. The “t1/2 (Geo. Mean)” value [5] was 1.82 h, the “tmax (Median)” value [5] was 2.0 h and the “AUC0-12 (Geo. Mean)” value [6] was 127 ng·h/mL. The “AUC0-∞ (Geo. Mean)” value [6] was 137 ng·h/mL, the “Cmax (Geo. Mean)” value [6] was 29.8 ng/mL and the “Cmax (Mean)” value [6] was 31.3 ng/mL. For the same molecule, the “Vz/F (Geo. Mean)” value [6] was 3210 L, the “Vz/F (Mean)” value [6] was 3360 L and the “t1/2 (Geo. Mean)” value [6] was 2.82 h. For the same molecule, the “tmax (Median)” value [6] was 2.0 h, the “AUC0-12 (Geo. Mean)” value [7] was 142 ng·h/mL and the “AUC0-12 (Mean)” value [7] was 145 ng·h/mL. The “AUC0-24 (Geo. Mean)” value [7] was 278 ng·h/mL, the “AUC0-∞ (Geo. Mean)” value [7] was 168 ng·h/mL and the “Cmax (Mean)” value [7] was 28.4 ng/mL. The “Vz/F (Geo. Mean)” value [7] was 3550 L, the “Vz/F (Mean)” value [7] was 3910 L and the “t1/2 (Mean)” value [7] was 3.80 h. For the same molecule, the “tmax (Median)” value [7] was 4.0 h, the “AUC0-12 (Geo. Mean)” value [8] was 114 ng·h/mL and the “AUC0-24 (Geo. Mean)” value [8] was 121 ng·h/mL. For the same molecule, the “AUC0-24 (Mean)” value [8] was 122 ng·h/mL, the “AUC0-∞ (Geo. Mean)” value [8] was 121 ng·h/mL and the “C24 (Geo. Mean)” value [8] was “BLQ”. For the same molecule, the “C24 (Mean)” value [8] was “BLQ”, the “Cmax (Geo. Mean)” value [8] was 28.5 ng/mL and the “Cmax (Mean)” value [8] was 30.0 ng/mL. For the same molecule, the “Vz/F (Geo. Mean)” value [8] was 3330 L, the “Vz/F (Mean)” value [8] was 3520 L and the “t1/2 (Geo. Mean)” value [8] was 2.64 h. For the same molecule, the “t1/2 (Mean)” value [8] was 2.73 h, the “tmax (Median)” value [8] was 1.8 h and the “VZ/F, Day 14” value (200 mg KAR5585 BID, fed) was 7010 L. The “mean VZ/F, Day 1” value (200 mg KAR5585 BID, fed) was 3220 L, the “Cmax (Mean)” value [9] was 87.8 ng/mL and the “Vz/F (Geo. Mean)” value [9] was 3130 L. For the same molecule, the “Vz/F (Mean)” value [9] was 3220 L, the “t1/2 (Geo. Mean)” value [9] was 2.81 h and the “t1/2 (Mean)” value [9] was 2.91 h. For the same molecule, the “tmax (Median)” value [9] was 1.5 h, the “VZ/F, Day 14” value (400 mg KAR5585 BID, fed) was 10300 L and the “mean VZ/F, Day 1” value (400 mg KAR5585 BID, fed) was 6800 L. The “tmax Day 7 evening dose” value (400 mg KAR5585 BID, fed) was 6 h, the “AUC0-12 (Geo. Mean)” value [10] was 25.3 ng·h/mL and the “AUC0-12 (Mean)” value [10] was 2.81 ng·h/mL. The “AUC0-∞ (Geo. Mean)” value [10] was 272 ng·h/mL, the “AUC0-∞ (Mean)” value [10] was 305 ng·h/mL and the “Cmax (Mean)” value [10] was 81.8 ng/mL. For the same molecule, the “Vz/F (Mean)” value [10] was 6800 L, the “t1/2 (Geo. Mean)” value [10] was 3.00 h and the “tmax (Median)” value [10] was 2.0 h. For the same molecule, the “AUC0-∞ (Geo. Mean)” value [11] was 633 ng·h/mL, the “Cmax (Geo. Mean)” value [11] was 1100 ng/mL and the “Vz/F (Geo. Mean)” value [11] was 3820 L. The “Vz/F (Mean)” value [11] was 4030 L, the “t1/2 (Geo. Mean)” value [11] was 4.18 h and the “t1/2 (Mean)” value [11] was 4.33 h. For the same molecule, the “tmax (Median)” value [11] was 3.0 h, the “AUC0-12 (Geo. Mean)” value [12] was 473 ng·h/mL and the “AUC0-∞ (Geo. Mean)” value [12] was 577 ng·h/mL. For the same molecule, the “Cmax (Geo. Mean)” value [12] was 91.3 ng/mL, the “Vz/F (Geo. Mean)” value [12] was 5680 L and the “Vz/F (Mean)” value [12] was 6220 L. For the same molecule, the “t1/2 (Mean)” value [12] was 4.90 h, the “tmax (Median)” value [12] was 2.0 h and the “AUC0-12 (Geo. Mean)” value [13] was 394 ng·h/mL. For the same molecule, the “AUC0-∞ (Geo. Mean)” value [13] was 534 ng·h/mL, the “Cmax (Mean)” value [13] was 69.0 ng/mL and the “Vz/F (Geo. Mean)” value [13] was 6770 L. For the same molecule, the “Vz/F (Mean)” value [13] was 6950 L, the “tmax (Median)” value [13] was 6.0 h and the “AUC0-12 (Geo. Mean)” value [14] was 359 ng·h/mL. For the same molecule, the “AUC0-24 (Geo. Mean)” value [14] was 433 ng·h/mL, the “AUC0-24 (Mean)” value [14] was 444 ng·h/mL and the “AUC0-∞ (Geo. Mean)” value [14] was 465 ng·h/mL. For the same molecule, the “Cmax (Geo. Mean)” value [14] was 85.3 ng/mL, the “Cmax (Mean)” value [14] was 89.0 ng/mL and the “Vz/F (Geo. Mean)” value [14] was 9780 L. For the same molecule, the “Vz/F (Mean)” value [14] was 10300 L, the “t1/2 (Geo. Mean)” value [14] was 6.08 h and the “t1/2 (Mean)” value [14] was 6.45 h. The “tmax (Median)” value [14] was 1.5 h, the “study day by which steady-state plasma levels were achieved” value (BID oral KAR5585 for 14 days) was at most 7 days and the “tmax (Median)” value (Day 7 AM) was 3.0 h. The “t1/2 (Geo. Mean)” value [15] was 4.21 h, the “t1/2 (Mean)” value [15] was 4.30 h and the “AUC0-12 (Geo. Mean)” value [16] was 217 ng·h/mL. The “AUC0-12 (Mean)” value [16] was 230 ng·h/mL, the “AUC0-∞ (Geo. Mean)” value [16] was 256 ng·h/mL and the “AUC0-∞ (Mean)” value [16] was 273 ng·h/mL. The “Vz/F (Geo. Mean)” value [16] was 5610 L, the “Vz/F (Mean)” value [16] was 5960 L and the “tmax (Median)” value (Day 7 PM) was 6.0 h. For the same molecule, the “AUC0-12 (Geo. Mean)” value [17] was 201 ng·h/mL, the “AUC0-24 (Geo. Mean)” value [17] was 414 ng·h/mL and the “AUC0-∞ (Geo. Mean)” value [17] was 289 ng·h/mL. The “AUC0-∞ (Mean)” value [17] was 290 ng·h/mL, the “Vz/F (Geo. Mean)” value [17] was 7000 L and the “Vz/F (Mean)” value [17] was 8710 L. For the same molecule, the “AUC0-12 (Geo. Mean)” value [18] was 333 ng·h/mL, the “AUC0-24 (Geo. Mean)” value [18] was 583 ng·h/mL and the “AUC0-∞ (Geo. Mean)” value [18] was 406 ng·h/mL. The “Cmax (Mean)” value [18] was 42.6 ng/mL, the “Vz/F (Geo. Mean)” value [18] was 3010 L and the “Vz/F (Mean)” value [18] was 3120 L. For the same molecule, the “AUC0-24 (Geo. Mean)” value [19] was 199 ng·h/mL, the “AUC0-24 (Mean)” value [19] was 212 ng·h/mL and the “C24 (Geo. Mean)” value [19] was “BLQ”. For the same molecule, the “C24 (Mean)” value [19] was “BLQ”, the “Cmax (Geo. Mean)” value [19] was 43.5 ng/mL and the “Cmax (Mean)” value [19] was 48.8 ng/mL. For the same molecule, the “Vz/F (Geo. Mean)” value [19] was 6430 L and the “Vz/F (Mean)” value [19] was 7010 L.
